The results in this text go back to patent publication US9427471B2, “Method and improved pharmaceutical composition for enhancing transdermal delivery of PDE-5 inhibitor” (Tritech Biopharmaceuticals Co., Ltd., priority 2011, dated 2016).

The format of data set [1] is in vitro ADME. As to conditions: Sprague-Dawley, rat, 1 % (wt %). The protocol: The permeation test was carried out using in vitro Franz diffusion cell with a diffusion area of 0.785 cm^2. A piece of rat (Sprague-Dawley) skin tissue was mounted between the two half-cells and fastened with a clamp. Aliquots of 1% (wt %) vardenafil with or without the addition of the enhancer of this disclosure, such as 0.3% (wt %) cocamidopropyl betaine, 1% (wt %) sodium lauroamphoacetate, 1% (wt %) isostearamidopropyl morpholine lactate, 1% (wt %) quaternium-60 or dipropyl glycol, were applied to the Donor compartment to start the experiment. The receiver compartment was filled with PBS and the temperature was held at 37° C. Samples were taken at certain time intervals and assayed by HPLC.

A short description of data set [2]: In vivo skin permeation analysis (applied to rabbit ear, vardenafil in blood). Conditions: gel formulations (about 0.5 ml, blood drawn after 1 hour) or skin patch (6 hours) with enhancer(s) applied to left ear of rabbit, blood from right ear artery; FIG. 2. The protocol: In vivo skin permeation tests were carried out using the gel formulations of example 2.1 and the skin patch of example 2.2. Briefly, small aliquots (about 0.5 ml) of gel formulations #1 to 4 or a small piece of the skin patch (3 cm×5 cm×0.15 cm) was applied to the left ear of a rabbit, after certain period of time, 1 ml of blood was drawn from the rabbit's right ear artery and analyzed for the amount of vardenafil. Specifically, the blood was drawn after 1 hour when gel formulation was used; and 6 hours when skin patch was applied. Results are illustrated in FIG. 2.

For `CCCc1nc(C)c2c(=O)[nH]c(-c3cc(S(=O)(=O)N4CCN(CC)CC4)ccc3OCC)nn12` [vardenafil], the “increase of the amount of vardenafil in the receiving side of Franz Diffusion chamber as compared with control” value in data set [1] was 0.5-2 folds. The “increase of the amount of vardenafil found in the blood stream as compared with control” value in data set [2] was 4 to 5 folds.
